Converted amounts (≈) assume the structure as drawn.
Key:
A. calcoaceticus No. 14 = test: MIC, agar plate dilution method; assay type: cell-based; conditions: Acinetobacter calcoaceticus; for MIC: A. calcoaceticus No. 14, 10^6 CFU/ml, Sensitivity Disk Agar, read-out: Minimum Inhibitory Concentration
Description: (§1) The minimum inhibitory concentrations (MIC: μg/ml) of the compounds of the present invention against various microorganisms were measured by an agar plate dilution method (inoculum size: 10^6 CFU/ml) by using Sensitivity Disk Agar (Nissui) in comparison with Cefotaxime and Ceftazidime as comparative compounds.

C. freundii No. 7 = test: MIC, agar plate dilution method; assay type: cell-based; conditions: Citrobacter freundii; C. freundii No. 7; 10^6 CFU/ml; Sensitivity Disk Agar; read-out: Minimum Inhibitory Concentration
Description: as §1

E. cloaceae Nek 39 = test: MIC, agar plate dilution method; assay type: cell-based; conditions: E. cloaceae Nek 39; 10^6 CFU/ml; Sensitivity Disk Agar; read-out: Minimum Inhibitory Concentration
Description: as §1

E. coli C/Rms149 = test: MIC, agar plate dilution method; assay type: cell-based; conditions: Escherichia coli, read-out: Minimum Inhibitory Concentration
Description: as §1

E. coli CSH2 = test: MIC, agar plate dilution method; assay type: cell-based; conditions: Escherichia coli, 10^6 CFU/ml, Sensitivity Disk Agar, read-out: Minimum Inhibitory Concentration
Description: as §1

E. coli CSH = test: MIC, agar plate dilution method; assay type: cell-based; conditions: Escherichia coli, read-out: Minimum Inhibitory Concentration
Description: as §1

E. coli ML1410/Rte16 = test: MIC, agar plate dilution method; assay type: cell-based; conditions: Escherichia coli, ML1410/RTE16, read-out: Minimum Inhibitory Concentration
Description: as §1

E. coli NIHJJC-2 = test: MIC, agar plate dilution method; assay type: cell-based; conditions: Escherichia coli, NIHJJC2; E. coli NIHJJC-2; 10^6 CFU/ml; Sensitivity Disk Agar; read-out: Minimum Inhibitory Concentration
Description: as §1

E. coli W3630/Rms212 = test: MIC, agar plate dilution method; assay type: cell-based; conditions: Escherichia coli, W3630/RMS212, read-out: Minimum Inhibitory Concentration
Description: as §1

E. coli W3630/Rms213 = test: MIC, agar plate dilution method; assay type: cell-based; conditions: Escherichia coli, W3630/RMS213, read-out: Minimum Inhibitory Concentration
Description: as §1

K. pneumoniae No. 42 = test: MIC, agar plate dilution method; assay type: cell-based; conditions: Klebsiella pneumoniae; K. pneumoniae No. 42; 10^6 CFU/ml; Sensitivity Disk Agar; read-out: Minimum Inhibitory Concentration
Description: as §1

P. mirabilis JY10 = test: MIC, agar plate dilution method; assay type: cell-based; conditions: Proteus mirabilis; P. mirabilis JY10; 10^6 CFU/ml; Sensitivity Disk Agar; read-out: Minimum Inhibitory Concentration
Description: as §1

P. vulgaris No. 33 = test: MIC, agar plate dilution method; assay type: cell-based; conditions: Proteus vulgaris; P. vulgaris No. 33; 10^6 CFU/ml; Sensitivity Disk Agar; read-out: Minimum Inhibitory Concentration
Description: as §1

P. vulgaris OB1043 = test: MIC, agar plate dilution method; assay type: cell-based; conditions: Proteus vulgaris; P. vulgaris OB1043; 10^6 CFU/ml; Sensitivity Disk Agar; read-out: Minimum Inhibitory Concentration
Description: as §1

S. aureus JS-1 = test: MIC, agar plate dilution method; assay type: cell-based; conditions: Staphylococcus aureus, JS1; S. aureus JS-1; 10^6 CFU/ml; Sensitivity Disk Agar; read-out: Minimum Inhibitory Concentration
Description: as §1

S. aureus NIHJJC-1 = test: MIC, agar plate dilution method; assay type: cell-based; conditions: Staphylococcus aureus, NIHJJC1; S. aureus NIHJJC-1; 10^6 CFU/ml; Sensitivity Disk Agar; read-out: Minimum Inhibitory Concentration
Description: as §1

S. marcescens No. 16-2 = test: MIC, agar plate dilution method; assay type: cell-based; conditions: Serratia marcescens, NO.162; S. marcescens No. 16-2; 10^6 CFU/ml; Sensitivity Disk Agar; read-out: Minimum Inhibitory Concentration
Description: as §1

P. aeruginosa AK109 = test: MIC, agar plate dilution method; assay type: cell-based, Pseudomonas aeruginosa; conditions: for MIC: Pseudomonas aeruginosa, P. aeruginosa AK109, 10^6 CFU/ml, Sensitivity Disk Agar, read-out: Minimum Inhibitory Concentration; for antibacterial activity relative to the compound of Reference Example: Pseudomonas aeruginosa AK109
Description: as §1

P. aeruginosa AKR17 = test: MIC, agar plate dilution method; assay type: cell-based, Pseudomonas aeruginosa; conditions: for MIC: Pseudomonas aeruginosa, P. aeruginosa AKR17, 10^6 CFU/ml, Sensitivity Disk Agar, read-out: Minimum Inhibitory Concentration; for antibacterial activity relative to the compound of Reference Example: Pseudomonas aeruginosa AKR-17, resistant to all cephalosporins including Ceftazidime
Description: as §1

P. cepacia 23 = test: MIC, agar plate dilution method; assay type: cell-based, Pseudomonas cepacia; conditions: for MIC: Burkholderia cepacia, P. cepacia 23, 10^6 CFU/ml, Sensitivity Disk Agar, read-out: Minimum Inhibitory Concentration; for antibacterial activity relative to the compound of Reference Example: Pseudomonas cepacia 23
Description: as §1

P. maltophilia IID 1275 = test: MIC, agar plate dilution method; assay type: cell-based, Pseudomonas maltophilia; conditions: for MIC: Stenotrophomonas maltophilia, IID1275, P. maltophilia IID 1275, 10^6 CFU/ml, Sensitivity Disk Agar, read-out: Minimum Inhibitory Concentration
Description: as §1

[1] = system: Gram-positive bacteria and Gram-negative bacteria; test: antibacterial activity, general statement; assay type: cell-based; conditions: sensitive and resistant bacteria
Description: as §1

Row | SMILES | MIC (A. calcoaceticus No. 14) [µg/mL] | MIC (C. freundii No. 7) [µg/mL] | MIC (E. cloaceae Nek 39) [µg/mL] | MIC (E. coli C/Rms149) [µg/mL] | MIC (E. coli CSH2) [µg/mL] | MIC (E. coli CSH) [µg/mL] | MIC (E. coli ML1410/Rte16) [µg/mL] | MIC (E. coli NIHJJC-2) [µg/mL] | MIC (E. coli W3630/Rms212) [µg/mL] | MIC (E. coli W3630/Rms213) [µg/mL] | MIC (K. pneumoniae No. 42) [µg/mL] | MIC (P. mirabilis JY10) [µg/mL] | MIC (P. vulgaris No. 33) [µg/mL] | MIC (P. vulgaris OB1043) [µg/mL] | MIC (S. aureus JS-1) [µg/mL] | MIC (S. aureus NIHJJC-1) [µg/mL] | MIC (S. marcescens No. 16-2) [µg/mL] | MIC (P. aeruginosa AK109) [µg/mL] | MIC (P. aeruginosa AKR17) [µg/mL] | MIC (P. cepacia 23) [µg/mL] | other results
1 | CO/N=C(\C(=O)NC1C(=O)N2C(C(=O)[O-])=C(C[N+]3(C)Cc4ccc(OC(C)=O)cc4C3)CSC12)c1csc(N)n1 (stereo not shown) [Ex. 1-F] | 25 (≈ 42.6 µM) | 1.56 (≈ 2.66 µM) | 0.78 (≈ 1.33 µM) | 0.1 (≈ 0.17 µM) | ≤ 0.05 | 0.78 (≈ 1.33 µM) | 0.1 (≈ 0.17 µM) | ≤ 0.05 | 0.2 (≈ 0.341 µM) | 0.78 (≈ 1.33 µM) | 0.2 (≈ 0.341 µM) | 0.39 (≈ 0.665 µM) | 0.1 (≈ 0.17 µM) | 0.78 (≈ 1.33 µM) | 6.25 (≈ 10.7 µM) | 0.39 (≈ 0.665 µM) | 12.5 (≈ 21.3 µM) | 3.12 (≈ 5.32 µM) | > 25 | 6.25 (≈ 10.7 µM) | MIC (P. maltophilia IID 1275): > 25 µg/mL
2 | CO/N=C(\C(=O)NC1C(=O)N2C(C(=O)[O-])=C(C[N+]3(C)Cc4ccc(O)cc4C3)CSC12)c1csc(N)n1 (stereo not shown) [Ex. 2-D, 7-[(Z)-2-(2-aminothiazol-4-yl)-2-methoxyiminoacetamido]-3-(5-hydroxy-2-methyl-2-isoindolinium)methyl-3-cephem-4-carboxylate] | 25 (≈ 45.9 µM) | 1.56 (≈ 2.86 µM) | 0.78 (≈ 1.43 µM) | 0.1 (≈ 0.184 µM) | ≤ 0.05 | 0.39 (≈ 0.716 µM) | 0.1 (≈ 0.184 µM) | ≤ 0.05 | 0.2 (≈ 0.367 µM) | 0.78 (≈ 1.43 µM) | 0.2 (≈ 0.367 µM) | 0.39 (≈ 0.716 µM) | 0.1 (≈ 0.184 µM) | 0.39 (≈ 0.716 µM) | 6.25 (≈ 11.5 µM) | 0.39 (≈ 0.716 µM) | 6.25 (≈ 11.5 µM) | 3.12 (≈ 5.73 µM) | > 25 | 6.25 (≈ 11.5 µM) | MIC (P. maltophilia IID 1275): > 25 µg/mL
3 | CO/N=C(\C(=O)NC1C(=O)N2C(C(=O)[O-])=C(C[N+]3(C)Cc4cc(OC(C)=O)c(OC(C)=O)cc4C3)CSC12)c1csc(N)n1 (stereo not shown) [Ex. 3-D] | 0.2 (≈ 0.31 µM) | 6.25 (≈ 9.69 µM) | ≤ 0.05 | 0.1 (≈ 0.155 µM) | 0.2 (≈ 0.31 µM) | 1.56 (≈ 2.42 µM) | 0.1 (≈ 0.155 µM) | ≤ 0.05 | ≤ 0.05 | 0.78 (≈ 1.21 µM) | 0.2 (≈ 0.31 µM) | 0.39 (≈ 0.605 µM) | 0.2 (≈ 0.31 µM) | 3.12 (≈ 4.84 µM) | 25 (≈ 38.8 µM) | 6.25 (≈ 9.69 µM) | 6.25 (≈ 9.69 µM) | 0.2 (≈ 0.31 µM) | 0.78 (≈ 1.21 µM) | 0.39 (≈ 0.605 µM) | antibacterial activity relative to the compound of Reference Example (A. calcoaceticus No. 14): at least 32 times; antibacterial activity relative to the compound of Reference Example (P. aeruginosa AK109): at least 16 times; antibacterial activity relative to the compound of Reference Example (P. aeruginosa AKR17): at least 32 times; antibacterial activity relative to the compound of Reference Example (P. cepacia 23): at least 32 times; MIC (P. maltophilia IID 1275): 25 µg/mL (≈ 38.8 µM); antibacterial activity (in words) [1]: particularly strong antibacterial activities
4 | C[N+]1(CC2=C(C(=O)[O-])N3C(=O)C(NC(=O)C(=NOC4(C(=O)O)CCC4)c4csc(N)n4)C3SC2)Cc2cc(O)c(O)cc2C1 (stereo not shown) [Ex. 11-F, 7-[(Z)-2-(2-aminothiazol-4-yl)-2-(1-carboxy-1-cyclobutoxyimino)acetamido]-3-(5,6-dihydroxy-2-methyl-2-isoindolinium)methyl-3-cephem-4-carboxylate] | 0.1 (≈ 0.155 µM) | 0.78 (≈ 1.21 µM) | ≤ 0.05 | ≤ 0.05 | ≤ 0.05 | ≤ 0.05 | ≤ 0.05 | ≤ 0.05 | ≤ 0.05 | ≤ 0.05 | ≤ 0.05 | ≤ 0.05 | ≤ 0.05 | ≤ 0.05 | > 25 | 25 (≈ 38.8 µM) | 0.2 (≈ 0.31 µM) | ≤ 0.05 | 0.1 (≈ 0.155 µM) | ≤ 0.05 | antibacterial activity relative to the compound of Reference Example (A. calcoaceticus No. 14): at least 32 times; antibacterial activity relative to the compound of Reference Example (P. aeruginosa AK109): at least 16 times; antibacterial activity relative to the compound of Reference Example (P. aeruginosa AKR17): at least 32 times; antibacterial activity relative to the compound of Reference Example (P. cepacia 23): at least 32 times; antibacterial activity relative to the compound of Reference Example (P. maltophilia IID 1275; Pseudomonas maltophilia resistant to all cephalosporins): at least twice as strong; MIC (P. maltophilia IID 1275): 1.56 µg/mL (≈ 2.42 µM)
5 | CO/N=C(\C(=O)NC1C(=O)N2C(C(=O)[O-])=C(C[N+]3(C)Cc4ccccc4C3)CSC12)c1csc(N)n1 (stereo not shown) [Reference Ex., 7-[(Z)-2-(2-aminothiazol-4-yl)-2-methoxyiminoacetamido]-3-(2-methyl-2-isoindolinium)methyl-3-cephem-4-carboxylate, reference compound] | 25 (≈ 47.3 µM) | 1.56 (≈ 2.95 µM) | 0.78 (≈ 1.48 µM) | 0.1 (≈ 0.189 µM) | ≤ 0.05 | 0.39 (≈ 0.738 µM) | 0.05 (≈ 0.0946 µM) | ≤ 0.05 | 0.2 (≈ 0.378 µM) | 0.78 (≈ 1.48 µM) | 0.2 (≈ 0.378 µM) | 0.39 (≈ 0.738 µM) | 0.2 (≈ 0.378 µM) | 0.78 (≈ 1.48 µM) | 3.12 (≈ 5.9 µM) | 0.39 (≈ 0.738 µM) | 12.5 (≈ 23.6 µM) | 3.12 (≈ 5.9 µM) | > 25 | 12.5 (≈ 23.6 µM) | MIC (P. maltophilia IID 1275): > 25 µg/mL

From US4677100A, “Cephalosporin derivatives” (Banyu Pharmaceutical Co., Ltd., priority 1984, dated 1987)
